Data published in patent US20210332014A1, “CABOZANTINIB MALATE CRYSTAL FORM, PREPARATION METHOD AND USE THEREOF” (Crystal Pharmaceutical (Suzhou) Co., Ltd., priority 2018, published 2021).

Assays:
Format in all cases: physicochemical
[1] = Kinetic solubility study (saturated solutions, HPLC); settings: for Solubility in FaSSIF / Solubility in FeSSIF / Solubility in H2O: 20 mg in 1.5 mL
Experimental: The HPLC method parameters for solubility test in the present disclosure are as follows: • 1. Column: Waters XBridge C18 150×4.6mm, 5 μm • 2. Mobile Phase: A: 0.1% TFA in H2O • B: 0.1% TFA in Acetonitrile • Gradient:
• 3. Flow rate: 1 mL/min • 4. Injection Volume: 5 μL • 5. Detection wavelength: 250 nm • 6. Column Temperature: 40° C. • 7. Diluent: Acetonitrile/H2O (9:1, v/v)
• Simulated gastrointestinal fluids such as FaSSIF (Fasted state simulated intestinal fluids) and FeSSIF (Fed state simulated intestinal fluids) are biorelevant media. […] After equilibrated for 1 h and 4 h, concentrations (mg/mL) of the saturated solutions were measured by HPLC.
• 20 mg of Form CSIII and 20 mg of crystalline forms in the prior arts were suspended into 1.5 mL of SGF, 1.5 mL of FaSSIF, 1.5 mL of FeSSIF and 1.5 mL of water to get saturated solutions. After equilibrated for 1 h and 4 h, concentrations (mg/mL) of the saturated solutions were measured by HPLC.

[2] = Compressibility (tensile strength of manually compressed tablet); settings: for Average tensile strength: 80 mg, φ6 mm round tooling, 10 KN, average of three tests
Experimental: • Manual tablet press was used for compression. 80 mg of Form CSIII and crystalline forms in the prior art were weighed and added into the dies of a φ6 mm round tooling, respectively, compressed at 10 KN manually, then stored at room temperature for 24 h until complete elastic recovery. Hardness (H) was tested with an intelligent tablet hardness tester. Diameter (D) and thickness (L) were tested with caliper. Tensile strength of the powder was calculated with the following formula: T=2H/πDL.

[3] = Flowability (compressibility index / Carr index); settings: for Compressibility index: c=(ρf−ρ0)/ρf
Experimental: Compressibility index test method is as follows: a certain amount of powder was added into a measuring cylinder and bulk volume was recorded. Then the powder was tapped to make it in the tightest state and the tapped volume was recorded. The bulk density (ρ0), tapped density (ρf) were calculated and compressibility index was calculated according to c=(ρf−ρ0)/ρf. • Criteria of flowability according to United States Pharmacopoeia USP1174, which is shown in Table 7.

[4] = Adhesiveness (material sticking to the punch); settings: for Average amount sticking to the punch / Maximum amount sticking to the punch: 30 mg, φ8 mm round tooling, 10 KN held 30 s
Experimental: • 30 mg of Form CSIII and crystalline forms in the prior art were weighed separately and then added into the dies of φ8 mm round tooling, compressed at 10 KN and held for 30 s. The punch was weighed and amount of material sticking to the punch was calculated. The compression was repeated twice and the cumulative amount, maximum amount and average amount of material sticking to the punch during the compression were recorded.

[5] = Particle size distribution (laser particle size analyzer); settings: wet mode, Isopar G
Experimental: The particle size distribution data in the present disclosure were acquired by an [MUT] laser particle size analyzer of Microtrac. Microtrac [MUT] is equipped with an SDC (Sample Delivery Controller). The test is carried out in wet mode, and the dispersion medium is Isopar G. The parameters are as follows:

[6] = Dynamic Vapor Sorption (DVS); settings: humidity lower than 30% RH, 25° C.
Experimental: Dynamic Vapor Sorption (DVS) is measured via an SMS (Surface Measurement Systems Ltd.) intrinsic DVS instrument. […] Typical Parameters for DVS test are as follows: • Temperature: 25° C. • Gas and flow rate: N2, 200 mL/min • dm/dt=0.002 • RH range: 0% RH to 95% RH

| Structure (SMILES) | Solubility compared with prior art [1] | Solubility in FaSSIF ([1]; equilibrated 1 h) [µg/mL] | Solubility in FaSSIF ([1]; equilibrated 4 h) [µg/mL] | Solubility in FeSSIF ([1]; equilibrated 1 h) [µg/mL] | Solubility in FeSSIF ([1]; equilibrated 4 h) [µg/mL] | Solubility in H2O ([1]; water, equilibrated 1 h) [µg/mL] | Solubility in H2O ([1]; water, equilibrated 4 h) [µg/mL] | Average tensile strength [2] [MPa] | Bulk density [3] [g/mL] | Tapped density [3] [g/mL] | Compressibility index [3] [%] | Average amount sticking to the punch [4] [mg] | Maximum amount sticking to the punch [4] [mg] | further results |
| --- | --- | --- | --- | --- | --- | --- | --- | --- | --- | --- | --- | --- | --- | --- |
| COc1cc2nccc(Oc3ccc(NC(=O)C4(C(=O)Nc5ccc(F)cc5)CC4)cc3)c2cc1OC.O=C(O)C[C@H](O)C(=O)O [Form CSIII, N-(4-(6,7-dimethoxyquinolin-4-yloxy)phenyl)-N′-(4-fluorophenyl) cyclopropane-1,1-dicarboxamide (S)-malate] | higher than that of prior art | 25 | 8.3 | 130 | 120 | 300 | 240 | 1.56 | 0.319 | 0.376 | 15 | 0.045 | 0.06 | Solubility relative to Form N-2 and Form M4 ([1]; FeSSIF and water): twice; Compressibility compared with prior art [2]: better compressibility; Flowability compared with prior art [3]: remarkably superior to that of prior art; Adhesiveness compared with prior art form [4]: superior to the prior art form; Maximum amount sticking to the punch of the prior art relative to Form CSIII [4]: over twice |
| COc1cc2nccc(Oc3ccc(NC(=O)C4(C(=O)Nc5ccc(F)cc5)CC4)cc3)c2cc1OC.O=C(O)C[C@H](O)C(=O)O [Form CSI, N-(4-(6,7-dimethoxyquinolin-4-yloxy)phenyl)-N′-(4-fluorophenyl) cyclopropane-1,1-dicarboxamide (S)-malate] | higher than that of prior art | – | – | – | – | 350 | 360 | – | – | – | – | – | – | Solubility in water relative to Form M4 ([1]; water): over five times more; Solubility in water relative to Form N-2 ([1]; water): twice |
| COc1cc2nccc(Oc3ccc(NC(=O)C4(C(=O)Nc5ccc(F)cc5)CC4)cc3)c2cc1OC.O=C(O)C[C@H](O)C(=O)O [Form M4, N-(4-(6,7-dimethoxyquinolin-4-yloxy)phenyl)-N′-(4-fluorophenyl) cyclopropane-1,1-dicarboxamide (S)-malate] | – | 12 | 1.9 | 62 | 65 | 72 | 2.8 | 1.23 | 0.251 | 0.387 | 35 | 0.08 | 0.11 | – |
| COc1cc2nccc(Oc3ccc(NC(=O)C4(C(=O)Nc5ccc(F)cc5)CC4)cc3)c2cc1OC.O=C(O)C[C@H](O)C(=O)O [Form N-2, N-(4-(6,7-dimethoxyquinolin-4-yloxy)phenyl)-N′-(4-fluorophenyl) cyclopropane-1,1-dicarboxamide (S)-malate] | – | 11 | 7.9 | 47 | 43 | 150 | 150 | 1.02 | 0.194 | 0.256 | 24 | 0.20 | 0.26 | – |
| COc1cc2nccc(Oc3ccc(NC(=O)C4(C(=O)Nc5ccc(F)cc5)CC4)cc3)c2cc1OC.O=C(O)C[C@H](O)C(=O)O [Form M2, N-(4-(6,7-dimethoxyquinolin-4-yloxy)phenyl)-N′-(4-fluorophenyl) cyclopropane-1,1-dicarboxamide (S)-malate] | – | – | – | – | – | – | – | – | – | – | – | – | – | D90 particle size [5]: 244.3 μm; Behaviour under humidity (DVS) [6]: dehydrated rapidly |
